According to ChEMBL document CHEMBL1201862, “PubChem BioAssay data set” (2004):
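Cultured in 96-well plates, cells were exposed to test compound for 48 hours across five concentrations. GI50 is the concentration that inhibits growth by half.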 Activity calls are given as the source filed them. Rule as the data show it: active = GI50 up to about 1.1 µM and inactive = higher.

What was measured:
Assay in all cases: NCI anticancer screen, dose series, 48 h
[1] = system: 786-0
[2] = system: HT-29
[3] = system: DMS-273
[4] = system: K562
[5] = system: SN12C
[6] = system: SNB-75
[7] = system: CAKI-1
[8] = system: SK-OV-3
[9] = system: HCT-116
[10] = system: OVCAR-5
[11] = system: U-251
[12] = system: LOX IMVI
[13] = system: MOLT-4
[14] = system: OVCAR-4
[15] = system: RPMI-8226
[16] = system: ACHN
[17] = system: HL-60
[18] = system: OVCAR-8
[19] = system: SK-MEL-5
[20] = system: M19-MEL
[21] = system: Malme-3M
[22] = system: UACC-257
[23] = system: KM12
[24] = system: SR
[25] = system: IGROV-1
[26] = system: NCI-H226
[27] = system: SF-268
[28] = system: HCT-15
[29] = system: SK-MEL-2
[30] = system: NCI-H522
[31] = system: SK-MEL-28
[32] = system: DMS-114
[33] = system: LXFL 529
[34] = system: CCRF-CEM
[35] = system: SF-539
[36] = system: RXF 393
[37] = system: HOP-92
[38] = system: UACC-62
[39] = system: COLO 205
[40] = system: TK-10
[41] = system: UO-31
[42] = system: SW-620
[43] = system: SF-295
[44] = system: HOP-62
[45] = system: A549
[46] = system: DLD-1
[47] = system: HOP-18
[48] = system: NCI-H460
[49] = system: NCI-H23
[50] = system: M14
[51] = system: A498
[52] = system: DU-145
[53] = system: HCC 2998
[54] = system: BT-549
[55] = system: MDA-MB-231
[56] = system: Hs-578T
[57] = system: SNB-19
[58] = system: NCI/ADR-RES
[59] = system: PC-3
[60] = system: MDA-MB-435
[61] = system: T47D
[62] = system: MDA-N
[63] = system: MCF7
[64] = system: OVCAR-3
[65] = system: EKVX
[66] = system: KM-20L2
[67] = system: XF498

In the case of `Cc1ccc(F)c2c(=O)cc(-c3ccccc3)[nH]c12`, the GI50 [1] is reported as > 100 µM (inactive), the GI50 [2] is reported as > 100 µM (inactive) and the GI50 [3] is reported as 94.6 µM (inactive). The GI50 [4] was > 100 µM (inactive), the GI50 [5] was > 100 µM (inactive) and the GI50 [6] was 26 µM (inactive). The GI50 [7] was > 100 µM (inactive), the GI50 [8] was > 100 µM (inactive) and the GI50 [9] was > 100 µM (inactive). For the same compound, the GI50 [10] was > 100 µM (inactive), the GI50 [11] was > 100 µM (inactive) and the GI50 [12] was > 100 µM (inactive). For the same compound, the GI50 [13] was > 100 µM (inactive), the GI50 [14] was > 100 µM (inactive) and the GI50 [15] was > 100 µM (inactive). The GI50 [16] was > 100 µM (inactive), the GI50 [17] was > 100 µM (inactive) and the GI50 [18] was > 100 µM (inactive). For the same compound, the GI50 [19] was 87.5 µM (inactive), the GI50 [20] was > 100 µM (inactive) and the GI50 [21] was > 100 µM (inactive). For the same compound, the GI50 [22] was > 100 µM (inactive), the GI50 [23] was 98.2 µM (inactive) and the GI50 [24] was 50.5 µM (inactive). The GI50 [25] was > 100 µM (inactive), the GI50 [26] was 63 µM (inactive) and the GI50 [27] was > 100 µM (inactive). The GI50 [28] was over 100 µM, the GI50 [29] was > 100 µM (inactive) and the GI50 [30] was > 100 µM (inactive). The GI50 [31] was > 100 µM (inactive), the GI50 [32] was > 100 µM (inactive) and the GI50 [33] was > 100 µM (inactive). The GI50 [34] was > 100 µM (inactive), the GI50 [35] was > 100 µM (inactive) and the GI50 [36] was > 100 µM (inactive). For the same compound, the GI50 [37] was > 100 µM (inactive), the GI50 [38] was > 100 µM (inactive) and the GI50 [39] was > 100 µM (inactive). For the same compound, the GI50 [40] was > 100 µM (inactive), the GI50 [41] was 60.3 µM (inactive) and the GI50 [42] was > 100 µM (inactive). For the same compound, the GI50 [43] was > 100 µM (inactive), the GI50 [44] was > 100 µM (inactive) and the GI50 [45] was > 100 µM (inactive). For the same compound, the GI50 [46] was > 100 µM (inactive), the GI50 [47] was > 100 µM (inactive) and the GI50 [48] was > 100 µM (inactive). For the same compound, the GI50 [49] was > 100 µM (inactive) and the GI50 [50] was > 100 µM (inactive).

In the case of `O=c1c2nc(-c3ccccc3)oc2n(-c2ccccc2)c(=O)n1-c1ccccc1`, the GI50 [1] is reported as 17.5 µM (inactive), the GI50 [2] is reported as > 46.5 µM (inactive) and the GI50 [4] is reported as > 46.5 µM (inactive). The GI50 [51] was 25.8 µM (inactive), the GI50 [52] was 82.2 µM (inactive) and the GI50 [5] was 36.2 µM (inactive). The GI50 [6] was 18.1 µM (inactive), the GI50 [7] was 8.18 µM (inactive) and the GI50 [8] was 21.5 µM (inactive). The GI50 [53] was > 46.5 µM (inactive), the GI50 [54] was 28.4 µM (inactive) and the GI50 [55] was 29.3 µM (inactive). For the same compound, the GI50 [56] was 21.9 µM (inactive), the GI50 [9] was 31.7 µM (inactive) and the GI50 [10] was > 46.5 µM (inactive). For the same compound, the GI50 [11] was 19.3 µM (inactive), the GI50 [12] was 38.5 µM (inactive) and the GI50 [13] was > 46.5 µM (inactive). The GI50 [57] was 20.7 µM (inactive), the GI50 [14] was 18.8 µM (inactive) and the GI50 [58] was 19.1 µM (inactive). The GI50 [59] was 44.4 µM (inactive), the GI50 [60] was > 46.5 µM (inactive) and the GI50 [15] was > 46.5 µM (inactive). For the same compound, the GI50 [16] was 25.9 µM (inactive), the GI50 [17] was > 100 µM (inactive) and the GI50 [18] was 23.3 µM (inactive). The GI50 [19] was 23.7 µM (inactive), the GI50 [21] was > 31.6 µM (inactive) and the GI50 [22] was 36.3 µM (inactive). The GI50 [61] was 37.9 µM (inactive), the GI50 [23] was 33.2 µM (inactive) and the GI50 [24] was > 31.6 µM (inactive). For the same compound, the GI50 [25] was 26.5 µM (inactive), the GI50 [26] was 31.8 µM (inactive) and the GI50 [62] was > 46.5 µM (inactive). For the same compound, the GI50 [27] was 20.7 µM (inactive), the GI50 [63] was 45.7 µM (inactive) and the GI50 [28] was over 46.5 µM. For the same compound, the GI50 [29] was > 46.5 µM (inactive), the GI50 [30] was 21.4 µM (inactive) and the GI50 [31] was > 100 µM (inactive). For the same compound, the GI50 [34] was > 46.5 µM (inactive), the GI50 [35] was 20.2 µM (inactive) and the GI50 [36] was 18.1 µM (inactive). For the same compound, the GI50 [37] was 14.4 µM (inactive), the GI50 [38] was 31.1 µM (inactive) and the GI50 [39] was > 46.5 µM (inactive). The GI50 [40] was 15 µM (inactive), the GI50 [41] was 22 µM (inactive) and the GI50 [42] was > 46.5 µM (inactive). For the same compound, the GI50 [43] was 19.1 µM (inactive), the GI50 [44] was 17.5 µM (inactive) and the GI50 [45] was 37.6 µM (inactive). The GI50 [64] was 25.8 µM (inactive), the GI50 [48] was 31.8 µM (inactive) and the GI50 [49] was 43.2 µM (inactive). The GI50 [65] was 28.4 µM (inactive) and the GI50 [50] was > 46.5 µM (inactive).

`COc1cc(CNc2nc3c(NC(C)=O)cc(C(F)(F)F)cc3nc2-c2ccccc2)cc(OC)c1OC` was tested, and the GI50 [3] was > 100 µM (inactive), the GI50 [4] was > 100 µM (inactive) and the GI50 [66] was > 100 µM (inactive). For the same compound, the GI50 [5] was > 100 µM (inactive), the GI50 [7] was > 100 µM (inactive) and the GI50 [8] was > 100 µM (inactive). For the same compound, the GI50 [53] was > 100 µM (inactive), the GI50 [9] was > 100 µM (inactive) and the GI50 [10] was > 100 µM (inactive). For the same compound, the GI50 [12] was > 100 µM (inactive), the GI50 [13] was > 100 µM (inactive) and the GI50 [57] was > 100 µM (inactive). The GI50 [14] was 89.5 µM (inactive), the GI50 [15] was > 100 µM (inactive) and the GI50 [16] was > 100 µM (inactive). The GI50 [18] was > 100 µM (inactive), the GI50 [19] was > 100 µM (inactive) and the GI50 [20] was > 100 µM (inactive). The GI50 [21] was 19.6 µM (inactive), the GI50 [23] was > 100 µM (inactive) and the GI50 [24] was > 100 µM (inactive). For the same compound, the GI50 [25] was > 100 µM (inactive), the GI50 [26] was > 100 µM (inactive) and the GI50 [27] was > 100 µM (inactive). The GI50 [28] was over 100 µM, the GI50 [29] was > 100 µM (inactive) and the GI50 [30] was > 100 µM (inactive). For the same compound, the GI50 [31] was > 100 µM (inactive), the GI50 [32] was > 100 µM (inactive) and the GI50 [33] was > 100 µM (inactive). The GI50 [34] was > 100 µM (inactive), the GI50 [35] was > 100 µM (inactive) and the GI50 [36] was 90.4 µM (inactive). For the same compound, the GI50 [37] was 17.8 µM (inactive), the GI50 [38] was 39.7 µM (inactive) and the GI50 [39] was > 100 µM (inactive). The GI50 [40] was > 100 µM (inactive), the GI50 [41] was > 100 µM (inactive) and the GI50 [42] was > 100 µM (inactive). For the same compound, the GI50 [43] was > 100 µM (inactive), the GI50 [44] was > 100 µM (inactive) and the GI50 [45] was > 100 µM (inactive). For the same compound, the GI50 [46] was > 100 µM (inactive), the GI50 [64] was > 100 µM (inactive) and the GI50 [67] was 26.5 µM (inactive). The GI50 [65] was > 100 µM (inactive).
